In series [1] the test system is RAW264.7 macrophages. As to the kind of experiment: Cell accumulation experiment, transmitted light microscopy of cellular staining pattern. The class given is cell-based. As to conditions: for Inferred uptake: inferred from staining pattern after 72 hour incubation; for Observed cellular staining pattern (Notes): live cells, 72 hour incubation, 5 × 10^−6 M (2.5 × 10^−6 M for I); for Cellular staining relative to clofazimine: live macrophages, 72 h; for Staining in fixed cells: methanol-fixed cells incubated 72 h with compound (control). As for the experimental part:
Cell Accumulation Experiments and Transmitted Light Microscopic Examination: […] After a 24 h incubation (37 °C, 5% CO2), cells were incubated with solution of clofazmine or its chemical derivatives (300 μL of 5 × 10^−6 m concentration; measured cell viability ranging from 85% to 97% for all compounds tested at this concentration; Figure 1) in DMEM (no phenol red; plus 1 × 10^−3 M sodium pyruvate and 5% FBS). For Compound “I,” 2.5 × 10^−6 M of compound solution in media was used for the RAW 264.7 macrophages incubation because of lower cell viability at higher concentrations (IC50 = (3.95 ± 0.11) × 10^−6 M). A solution of clofazmine or other chemical derivatives was made by a diluting stock solutions (2.5 × 10^−3 M in DMSO; 10 × 10^−3 M stock in DMSO were stored at −80 °C for further use) into DMEM with 5% FBS. […] The extracellular concentration of each compound in each well was maintained by daily replacement of the compound‐containing media. After 72 h of incubation with clofazmine or its derivatives, compound‐containing media were removed and cells were washed twice with media. Live cells in the chambered glasses were examined under inverted transmitted light microscopy (Nikon Eclipse Ti microscope) with a 40× objective and color camera. As a control experiment, fixed cells were also microscopically examined after incubation with the compounds. Cells were seeded on the chambered cover glasses at the density of 1.5 × 10^4 cells cm^−2 (RAW264.7 macrophages) or 2.5 × 10^4 cells cm^−2 (MDCK epithelial cells). After an overnight incubation (37 °C, 5% CO2), media was removed from the wells and cold methanol (−20 °C) was added to each well. After 30 s, remaining methanol was removed by washing with media with 5% FBS. Fixed cells were incubated (37 °C, 5% CO2) with clofazmine or derivatives (300 μL of 5 × 10^−6 M; 2.5 × 10^−6 M for I) in media with 5% FBS. After 72 h, fixed RAW264.7 or MDCK cells were washed with media and examined using the same transmitted microscopy conditions as the live cells.

For series [2], the system named is MDCK epithelial cells. As to the kind of experiment: Linear diattenuation anisotropy microscopy (LC-PolScope) of intracellular inclusions. The class given is cell-based, Canine. The conditions noted are these: 72 h, compared with clofazimine. The procedure: (§1) The optical design was built on a Nikon Eclipse Ti microscope equipped with the liquid crystal universal compensator consisting of a linear polarizer and a pair of liquid crystal devices. The LC compensator was part of the transillumination path and was used to illuminate the specimen with monochromatic, linearly polarized light of varying polarization orientation. There was no polarization analyzer present in the imaging path. Quantitative intensity images were recorded by a charge‐coupled device camera and a desktop computer calculated the average transmittance, the differential transmittance and the polarization orientation leading to maximum transmittance for each optically resolved picture element (pixel). Acquisition and processing steps were controlled using OpenPolScope plugins for the open source imaging programs ImageJ and Micro‐Manager (MMStudio version 1.4.15). With the combination of hardware and software, polarized light images were acquired at high sensitivity and high spatial resolution for measuring linear diattenuation.
(§2) Linear Diattenuation Microscopy Data Acquisition and Analysis: After RAW264.7 macrophages or MDCK epithelial cells were incubated with the compound in the chambered cover glasses for 72 h, at the same time of performing transmitted microscopic examination, cell specimens were examined under linear diattenuation microscopy using the Nikon Eclipse Ti microscope with 40×/0.75 NA objective and monochromatic light of two different center wavelengths, 546 and 623 nm (passband 30 nm). In the OpenPolScope software, Pol‐Acquisition and Pol‐Analyzer plugins (version 2.0) were used to capture, process, and analyze the attenuation images. Before imaging the samples, the setup was calibrated using a specially prepared slide featuring four small pieces of linear polarization filters. The transmission axes of the filters were oriented in steps of 45° providing a means to calibrate the LC universal compensator settings. After the calibration, a sample slide was inserted and first a sequence of polarized light images of a clear, fully transmitting sample area was recorded, followed by an image sequence featuring the cells under investigation. The images of the clear area were used to determine instrument factors which were needed for computing the average and the polarization dependent loss in transmittance in cellular components visible in the second image.10
(§3) Linear diattenuation is a material property that can occur in materials such as crystals, in which the light absorbing molecules are arranged with a preferred orientation. The molecular alignment creates principal axes in the material denoting polarization directions for which light is maximally and minimally transmitted. Diattenuation is the difference between maximal (T max) and minimal (T min) transmittance, divided by their sum (Equation (1)): (1) Diattenuation=Tmax‐Tmin/Tmax+Tmin
(§4) To simultaneously measure the attenuation of many crystals with arbitrary orientations, we developed algorithms based on four specimen images, each recorded using light of a different polarization orientation: 0°, 45°, 90°, and 135°.10 The four raw images were used to calculate the average and differential transmittance and the orientation of maximum transmittance in every resolved image pixel. To isolate and analyze quantitative data of the objects (crystals), the anisotropy or maximum transmittance axis orientation image file opened in ImageJ was inverted (Ctrl + Shift + I) and thresholded using ImageJ's default automatic method (“Binary” → “Convert to Mask”). By using the ImageJ's algorithm, “Analyze Particles,” data of anisotropy or maximum transmittance axis orientation of objects in images could be obtained automatically. Diattenuation ratios were calculated by dividing anisotropy at 623 nm by that at 546 nm.

Series [3] concerns RAW264.7 macrophages. The description is as above. The series is classed as cell-based. As to conditions: 72 h, compared with clofazimine. The procedure: as §1, §2, §3, §4
Series [4] has as its system RAW264.7 macrophages. The series is described as follows: Cell associated mass measurements (bioaccumulation, pmole/cell). The class given is cell-based. The conditions noted are these: 72 h incubation, normalized by number of cells. The procedure:
Cell Associated Mass Measurements: […] After an overnight incubation (37 °C, 5% CO2), cells were incubated with 100 μL of the media (DMEM with 5% FBS) containing 5 × 10^−6 M clofazmine or its chemical derivatives (2.5 × 10^−6 M of Compound “I”). Media containing each compound was replaced every day during the 72 h incubation. After the incubation, media was removed and cells were washed with Hank's balanced salt solution (HBSS) buffer (No. 14025; Invitrogen) twice. RAW264.7 macrophage cells in buffer were scraped and MDCK epithelial cells were exposed to Trypsin‐EDTA solution for detachment from the plates for cell number counting and quantification of cell‐associated masses. After centrifugation (650 × g), supernatant was removed and cell pellets were resuspended in 0.1 M citric acid/0.1 M trisodium citrate buffer (pH 5) for cell counting as previously reported.7 Equal numbers of cells in 100 μL in buffer were transferred to 96 well plates and 100 μL of detergent (ATCC, 30‐1010K) was added into wells for cell lysis. Chemical absorbance from each well was measured by the UV–vis microplate reader (Synergy 2, BioTek Instruments, Winooski, VT) at 490 nm wavelength and cell‐associated mass of each compound was calculated by a standard curve generated separately using the same media and presented as pmole/cell by normalizing the amount of chemical in each cell population sample by the number of cells in each sample.

Structures are written as SMILES.

Consider `CC(C)N=c1cc2n(-c3ccc(C#N)cc3)c3ccccc3nc-2cc1Nc1ccc(C#N)cc1` [B], for which, in series [1], the Inferred uptake result is “Very slow” and the “Observed cellular staining pattern (Notes)” value is reported as “formed large extracellular crystals. No intracellular staining pattern”.
For the compound `CC(C)C(CO)N=c1cc2n(-c3ccc(Cl)cc3)c3ccccc3nc-2cc1Nc1ccc(Cl)cc1` (stereo not drawn) [V], in series [1], the Inferred uptake result is “Good”, the “Observed cellular staining pattern (Notes)” value is reported as “Brown crystal-like inclusions appeared in live cells”, the “Cellular staining relative to clofazimine” value is recorded as “prominent cellular staining” and the “Staining in fixed cells” value is recorded as “Staining not observed in fixed cells”. The “Diattenuation anisotropy of intracellular inclusions” value (shortened to “Diattenuation anisotropy”) in series [2] is “only in macrophages”. Also, the “Diattenuation anisotropy” value in series [3] is given as “even higher anisotropy”. In addition, the Accumulation in macrophages entry in series [4] is recorded as “greatest accumulation”.
Regarding `CC(C)N=c1cc2n(-c3ccc(F)cc3)c3ccccc3nc-2cc1Nc1ccc(F)cc1` [E], in series [1], the Inferred uptake entry is recorded as “Slow” and the “Observed cellular staining pattern (Notes)” value is reported as “Very faint, brown perinuclear staining pattern observed across all cells”.
The matching figures for `CC(C)N=c1cc2n(-c3ccc(C(F)(F)F)cc3)c3ccccc3nc-2cc1Nc1ccc(C(F)(F)F)cc1` [D]: “Very slow” and “No intracellular staining pattern observed. Small percentage of cells with orange crystals”.
In the case of `CC(C)[C@H](CO)N=c1cc2n(-c3ccc(Cl)cc3)c3ccccc3nc-2cc1Nc1ccc(Cl)cc1` [W], in series [1], the Inferred uptake entry is given as “Good”, the “Observed cellular staining pattern (Notes)” value is “Brown crystal-like inclusions are shown in live cells”, the “Cellular staining relative to clofazimine” value was “prominent cellular staining” and the “Staining in fixed cells” value is “absent in fixed cells”. For the same compound, in series [2], the “Diattenuation anisotropy” value is on record as “only in macrophages”. Moreover, the “Diattenuation anisotropy” value in series [3] is “even higher anisotropy”. Moreover, the Accumulation in macrophages entry in series [4] is “greatest accumulation”.
With `Clc1ccc(Nc2cc3nc4ccccc4n(-c4ccc(Cl)cc4)c-3cc2=NCCN2CCOCC2)cc1` [N], in series [1], the Inferred uptake entry is “Moderate”, the “Observed cellular staining pattern (Notes)” value is on record as “Faint orange staining pattern associated with perinuclear cytoplasmic vesicles” and the “Staining in fixed cells” value is “Staining not observed in fixed cells”.
Regarding `COc1ccc(Nc2cc3nc4ccccc4n(-c4ccc(OC)cc4)c-3cc2=NC(C)C)cc1` [A], in series [1], the Inferred uptake entry is “Slow” and the “Observed cellular staining pattern (Notes)” value is “did not exhibit any intracellular staining pattern”.
For the compound `C[C@H](N=c1cc2n(-c3ccc(Cl)cc3)c3ccccc3nc-2cc1Nc1ccc(Cl)cc1)c1ccccc1` [R], in series [1], the Inferred uptake entry is listed as “Good”, the “Observed cellular staining pattern (Notes)” value is “Orange-brown staining pattern associated with perinuclear cytoplasmic vesicles in live cells” and the “Staining in fixed cells” value is given as “No staining found in Fixed cells”. Further, in series [2], the “Diattenuation anisotropy” value is “did not yield a measurable, diattenuation anisotropy signal”. Besides, the “Diattenuation anisotropy” value in series [3] is “did not yield a measurable, diattenuation anisotropy signal”.
For `COCCN=c1cc2n(-c3ccc(Cl)cc3)c3ccccc3nc-2cc1Nc1ccc(Cl)cc1` [H], in series [1], the Inferred uptake entry is reported as “Moderate”; the “Observed cellular staining pattern (Notes)” value is recorded as “Brown staining associated with vesicles/membranes”; the “Cellular staining relative to clofazimine” value was “comparable in morphology and intensity to those of clofazimine”; the “Staining in fixed cells” value is “Fixed cells also exhibited staining”.
As for `Oc1ccc(CCN=c2cc3n(-c4ccc(Cl)cc4)c4ccccc4nc-3cc2Nc2ccc(Cl)cc2)cc1O` [O], in series [1], the Inferred uptake entry is listed as “Good”, the “Observed cellular staining pattern (Notes)” value is reported as “Most of cells have shown faint orange colored vesicles” and the “Staining in fixed cells” value was “Staining not observed in fixed cells”.
As to `CCCCN=c1cc2n(-c3ccc(Cl)cc3)c3ccccc3nc-2cc1Nc1ccc(Cl)cc1` [K], in series [1], the Inferred uptake entry is recorded as “Slow” and the “Observed cellular staining pattern (Notes)” value is recorded as “Very faint, brown perinuclear staining pattern”.
`NC(=O)CCN=c1cc2n(-c3ccc(Cl)cc3)c3ccccc3nc-2cc1Nc1ccc(Cl)cc1` [L]: in series [1], the Inferred uptake entry is recorded as “Good”, the “Observed cellular staining pattern (Notes)” value is given as “Small brown inclusions present in live cells” and the “Staining in fixed cells” value is listed as “absent in fixed cells”.
For the compound `CC(C)N=c1cc2n(-c3ccc(-c4ccccc4)cc3)c3ccccc3nc-2cc1Nc1ccc(-c2ccccc2)cc1` [C], in series [1], the Inferred uptake result was “Slow” and the “Observed cellular staining pattern (Notes)” value was “Very faint, brown perinuclear staining pattern observed across all cells”.
Consider `COc1ccc2[nH]cc(CCN=c3cc4n(-c5ccc(Cl)cc5)c5ccccc5nc-4cc3Nc3ccc(Cl)cc3)c2c1` [M], for which, in series [1], the Inferred uptake result is reported as “Good”; the “Observed cellular staining pattern (Notes)” value is “Orange-brown or purple inclusions present in live cells”; the “Cellular staining relative to clofazimine” value was “comparable in morphology and intensity to those of clofazimine”; the “Staining in fixed cells” value is “Staining not observed in fixed cells”.

The record behind these values is PMC4569013, “Massive Bioaccumulation and Self‐Assembly of Phenazine Compounds in Live Cells” (Advanced Science, 2015).
